According to US20040023884A1, “Biologically active peptides from functional domains of bactericidal/permeability-increasing protein and uses thereof” (priority 1993, published 2004):
Ends that are not written are not given here.

Assays:
[1] = Binding of [125I]-RaLPS to peptides pre-bound to HUVEC cells; assay type: cell-based, human; settings: 1 μg/mL or 3 μg/mL peptide
Description: In a third binding assay, a number of BPI functional domain peptides were tested for their ability to bind to radiolabeled LPS following incubation with human endothelial cells (HUVEC). This assay measures the ability to bind LPS once the BPI peptides are bound to HUVEC cells. HUVEC cells were incubated in the presence of various BPI peptides at a concentration of either 1 μg/mL or 3 μg/mL for 3 hr at 4° C. in 500 μL of a solution of D-PBS/BSA. Following this incubation, the cells were washed twice with ice-cold D-PBS/BSA and then incubated for an additional 2.5 hr at 4° C. in 500 μL of a solution of [^125I]-RaLPS (a total of 340,000 cpm at a specific activity of 4.6×10^6 cpm/μg) in D-PBS/BSA. The wells were washed three times with D-PBS/BSA, solubilized in 500 μL of 1M NaOH and the lysates counted using a gamma counter.

[2] = system: zymosan-stimulated NO production by RAW 264.7 cells; assay: Zymosan-stimulated NO production by RAW 264.7 cells; assay type: cell-based, mouse
Description: An additional LPS neutralization screening assay for BPI functional domain peptides was developed using an assay for NO production in mouse cells treated with LPS (see Lorsbach et al., 1993, J. Biol. Chem. 268: 1908-1913). In this assay, mouse RAW 264.7 cells (ATCC Accession No. TIB71) were treated with bacterial LPS. The cells were incubated in 96-well plates and stimulated for 2 hours with E. coli 0113 LPS or zymosan, in the presence or absence of _-interferon, rLBP, fetal bovine serum (FBS) or normal human serum (NHS), or rBPI21Δcys. After this incubation, the cells were washed with fresh media and incubated overnight in media containing 10% FCS. The NO released from the cells accumulated in the media and spontaneously converted to nitrite. This nitrite was assayed in situ by the Griess reaction, as follows. The nitrite was reacted with the primary amine of an added sulfanilamide and formed a diazonium salt. This salt was then reacted with added naphthylethylenediamine to form a red azo-dyc. The Griess reaction was performed at room temperature in about 10 minutes. The amount of produced NO was estimated from a standard curve of Griess reaction products determined spectrophotometrically as Absorbance at a wavelength of 550 nm.

E. coli O75 = assay: Radial diffusion bactericidal assay, E. coli O75; assay type: cell-based; settings: FIG. 11d; up to about 2000 pmol
Pseudomonas aeruginosa = assay: Radial diffusion bactericidal assay, Pseudomonas aeruginosa; assay type: cell-based; settings: FIG. 11a; up to about 2000 pmol
E. coli O18:K1:H7 = assay: Radial diffusion bactericidal assay, E. coli O18:K1:H7; assay type: cell-based; settings: FIG. 11b; up to about 2000 pmol
[3] = system: L-form of S. aureus ATCC 19640; assay: Activity against L-forms of gram-positive bacteria; assay type: cell-based
Description: The bactericidal capacity of BPI peptides provided by the invention was also tested against Gram-positive bacteria (See Table VIII A). […] In addition, peptides were tested for their activity against L-forms of gram-positive bacteria, such as the L-form of S. aureus ATCC 19640.

E. coli J5 (rough) = assay: Broth antibacterial assay, E. coli J5; assay type: cell-based
Description: (§1) In additional experiments, broth antibacterial assays were conducted to further determine the bactericidal activity of certain of the BPI peptides. Specifically, either E. coli J5 (rough) or E. coli 0111:B4 (smooth) bacteria were selected from single colonies on agar plates and used to inoculate 5 mL of Mueller Hinton broth and incubated overnight at 37° C. with shaking. The overnight culture was diluted (˜1:50) into 5 mL fresh broth and incubated at 37° C. to log phase (˜3 hours). Bacteria were pelleted for 5 minutes at 3000 rpm (1500×g). Bacterial pellets were resuspended in 5 mL PBS and diluted to 2×10^6 cells/mL in the Mueller Hinton broth (wherein 1 OD570 unit equals 1.25×10^9 CFU/mL). The BPI functional domain peptides to be tested were diluted to 200 μg/mL in broth and serially diluted 2-fold in 96 well culture plates (100 μL volume). All items were at 2-fold final concentration and experiments were conducted in triplicate. Bacteria were added at 100 μL/well and the plates were incubated on a shaker at 37° C. for a 20 hour period. The plates were then read on an ELISA plate multiple reader at 590 nm. One of the triplicate wells from each peptide concentration was selected for colony forming unit (CFU) determination. A 30 μL aliquot was added to 270 μL of PBS and further ten-fold serial dilutions were performed. Then a 50 μL aliquot was plated on tryptic soy agar and incubated overnight. Colonies were counted and final bacterial concentrations determined. The results of these assays are depicted in FIGS. 9e (for E. coli J5) and 9f (for E. coli 0111:B4).

ATIII/heparin complexes = assay: Thrombin inactivation by ATIII/heparin complexes (Chromostrate anti-thrombin assay); assay type: biochemical; settings: 1.0 to 100 μg/mL
Description: BPI functional domain peptides BPI.2, BPI.3, BPI.4, BPI.5, BPI.6, and BPI.8, along with rBPI23 as a positive control, were assayed for their effect on thrombin inactivation by ATIII/heparin complexes according to the method of Example 3 in copending and co-assigned U.S. patent application Ser. No. 08/093,202, filed Jul. 15, 1993, incorporated by reference. Specifically, a Chromostrate™ anti-thrombin assay kit (Organon Teknika Corp., Durham, N.C.) was used to examine the inhibition of purified thrombin by preformed ATIII/heparin complexes in plasma.
Briefly, the assay was performed in 96 well microtiter plates in triplicate with a final volume per well of 200 μL. Varying concentrations of the BPI functional domain peptides ranging from 1.0 μg/mL to 100 μg/mL were assayed to determine their effect on thrombin inhibition in the presence of pre-formed ATIII/heparin complexes. The order of addition of assay components was as follows: 1) a dilution series of rBPI23 or BPI functional domain peptides or thaumatin as a control protein, with final concentrations of 100, 50, 25, 10 and 1 μg/well, diluted in PBS in a final volume of 50 μL; 2) 50 μL plasma diluted 1:100 in a buffer supplied by the manufacturer, 3) 50 μl thrombin at 1 nKat/mL in a buffer supplied by the manufacturer, and 4) 50 μL chromogenic substrate at a concentration of 1 μmol/mL in water. The reaction was allowed to proceed for 10 minutes at 37° C. and stopped with the addition of 50 μL 0.1M citric acid. The colorimetric reaction was quantitated on a microplate reader as described in Example 3.

E. coli 0111:B4 (smooth) = assay: Broth antibacterial assay, E. coli 0111:B4; assay type: cell-based
Description: as §1

Substance: KSKVGWLIQLFHKKKSKVGWLIQLFHKK-NH2 (C-terminus assumed) [BPI.29]
- LPS binding while bound to HUVEC cells (in words) [1]: retain the capacity to bind LPS while bound to HUVEC cells

Substance: IKISGKWKAQKRFLK [BPI.2]
- inhibition of zymosan-stimulated NO production (in words) [2]: not inhibited

Substance: KWKAQKRFLKKSKVGWLIQLFHKK-NH2 (C-terminus assumed) [BPI.30]
- bactericidal activity (in words) (E. coli O75): showed bactericidal activity
- bactericidal activity (in words) (Pseudomonas aeruginosa): showed bactericidal activity
- bactericidal activity (in words) (E. coli O18:K1:H7): showed bactericidal activity
- LPS binding while bound to HUVEC cells (in words) [1]: retain the capacity to bind LPS while bound to HUVEC cells
- inhibition of zymosan-stimulated NO production (in words) [2]: inhibited by BPI.30 at high (—100 μg/mL) concentrations

Substance: KSKVGWLIQLFHKK-NH2 (C-terminus assumed) [BPI.13]
- bactericidal activity (in words) (E. coli O75): showed bactericidal activity
- bactericidal activity (in words) (Pseudomonas aeruginosa): showed bactericidal activity
- activity against L-form bacteria (in words) [3]: active against these L-form bacteria
- bactericidal activity (in words) (E. coli O18:K1:H7): showed bactericidal activity

Substance: NVGLKFSISNANIKISGKWKAQKRFLK [BPI.3]
- bactericidal activity (in words) (E. coli J5 (rough)): significant anti-bacterial activity
- heparin neutralization effect (in words) (ATIII/heparin complexes): most significant heparin neutralization effects
- bactericidal activity (in words) (E. coli 0111:B4 (smooth)): less activity
- inhibition of zymosan-stimulated NO production (in words) [2]: not inhibited

Substance: KWKAQKRFLKKWKAQKRFLK-NH2 (C-terminus assumed) [BPI.7]
- bactericidal activity (in words) (E. coli J5 (rough)): significant bactericidal activity
- heparin neutralization effect (in words) (ATIII/heparin complexes): significant heparin neutralization effects
- bactericidal activity (in words) (E. coli 0111:B4 (smooth)): significant bactericidal activity
- inhibition of zymosan-stimulated NO production (in words) [2]: small amount of inhibition by BPI.7 at high concentrations

Substance: KWKAAARFLKKWKAAARFLK [BPI.48]
- activity against L-form bacteria (in words) [3]: active against these L-form bacteria
